target: T1, Nav1.7 (or SCN9A) channel; HEK cells stably transfected with hSCN9A (Homo sapiens, UniProt Q15858); assay: Nav1.7 block, PatchXpress 7000 automated whole-cell voltage clamp, estimated IC50 (EIC50); type: cell-based; conditions: PatchXpress platform; hSCN9A HEK cells held at V1/2 of inactivation; estimated IC50
T1 construct: expressed in transfected cells
T1 sequence (Q15858 whole entry): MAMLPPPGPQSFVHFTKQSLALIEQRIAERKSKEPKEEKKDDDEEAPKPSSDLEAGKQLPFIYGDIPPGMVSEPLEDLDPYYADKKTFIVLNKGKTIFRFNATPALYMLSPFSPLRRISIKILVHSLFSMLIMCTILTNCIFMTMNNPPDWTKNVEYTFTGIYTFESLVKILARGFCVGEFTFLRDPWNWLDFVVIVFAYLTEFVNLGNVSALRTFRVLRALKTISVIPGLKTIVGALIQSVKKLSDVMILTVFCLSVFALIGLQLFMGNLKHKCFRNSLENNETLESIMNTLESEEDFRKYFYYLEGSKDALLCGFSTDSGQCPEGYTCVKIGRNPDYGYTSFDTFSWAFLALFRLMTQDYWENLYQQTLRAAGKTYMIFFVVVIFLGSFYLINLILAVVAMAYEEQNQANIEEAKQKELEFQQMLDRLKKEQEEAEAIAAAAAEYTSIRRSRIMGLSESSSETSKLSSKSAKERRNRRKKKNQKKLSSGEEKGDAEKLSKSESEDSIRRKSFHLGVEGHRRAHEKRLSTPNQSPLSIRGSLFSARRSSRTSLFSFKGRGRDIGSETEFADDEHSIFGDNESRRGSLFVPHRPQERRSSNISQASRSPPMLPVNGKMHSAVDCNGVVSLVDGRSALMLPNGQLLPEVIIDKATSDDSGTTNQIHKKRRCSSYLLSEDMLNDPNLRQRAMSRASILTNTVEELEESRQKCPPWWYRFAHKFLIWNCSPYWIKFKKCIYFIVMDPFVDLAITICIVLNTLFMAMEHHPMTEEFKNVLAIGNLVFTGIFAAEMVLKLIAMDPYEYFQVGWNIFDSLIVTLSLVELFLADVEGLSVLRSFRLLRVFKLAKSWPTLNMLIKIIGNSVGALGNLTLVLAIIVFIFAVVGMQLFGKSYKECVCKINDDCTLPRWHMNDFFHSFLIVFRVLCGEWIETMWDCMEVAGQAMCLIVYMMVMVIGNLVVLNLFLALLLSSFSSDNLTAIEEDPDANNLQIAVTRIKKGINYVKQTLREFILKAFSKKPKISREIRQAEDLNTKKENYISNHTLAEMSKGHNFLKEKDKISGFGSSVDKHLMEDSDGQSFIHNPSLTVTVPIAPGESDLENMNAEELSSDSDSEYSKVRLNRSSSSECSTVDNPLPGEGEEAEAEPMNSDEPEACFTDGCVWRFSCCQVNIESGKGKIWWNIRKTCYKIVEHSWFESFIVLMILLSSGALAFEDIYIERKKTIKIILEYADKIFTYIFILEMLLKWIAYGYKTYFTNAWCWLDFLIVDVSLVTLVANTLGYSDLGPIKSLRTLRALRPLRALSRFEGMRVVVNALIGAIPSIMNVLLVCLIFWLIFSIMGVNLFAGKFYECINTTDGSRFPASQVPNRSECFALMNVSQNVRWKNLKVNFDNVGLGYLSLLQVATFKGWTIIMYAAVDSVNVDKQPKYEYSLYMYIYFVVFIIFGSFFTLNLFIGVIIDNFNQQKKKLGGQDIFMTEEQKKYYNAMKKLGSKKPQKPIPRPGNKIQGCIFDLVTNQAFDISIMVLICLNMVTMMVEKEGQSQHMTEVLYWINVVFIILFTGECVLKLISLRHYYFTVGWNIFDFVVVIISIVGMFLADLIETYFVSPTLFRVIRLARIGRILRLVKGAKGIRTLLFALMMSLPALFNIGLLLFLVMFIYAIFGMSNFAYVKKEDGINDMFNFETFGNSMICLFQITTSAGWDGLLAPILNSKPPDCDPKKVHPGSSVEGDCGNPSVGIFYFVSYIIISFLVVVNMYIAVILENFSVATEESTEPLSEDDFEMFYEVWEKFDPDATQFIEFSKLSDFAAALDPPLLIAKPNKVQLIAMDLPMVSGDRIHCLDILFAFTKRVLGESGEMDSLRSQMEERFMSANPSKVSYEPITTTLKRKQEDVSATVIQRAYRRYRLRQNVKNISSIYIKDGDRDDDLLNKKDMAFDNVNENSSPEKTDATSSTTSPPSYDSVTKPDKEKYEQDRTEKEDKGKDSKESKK

IC50 [µM]	SMILES
0.06	Cc1ccc(Oc2ccc(S(=O)(=O)Nc3nccs3)cc2F)c(-c2ccnn2C)c1 [Example 222, 3-fluoro-4-(4-methyl-2-(1-methyl-1H-pyrazol-5-yl)phenoxy)-N-(thiazol-2-yl)benzenesulfonamide]

same assay, conditions: estimated IC50; hSCN9A HEK cells, PatchXpress platform; Examples 283-814

IC50 [µM]	SMILES
0.03	O=S(=O)(Nc1nncs1)c1cc(Cl)c(Oc2ccc(C(F)(F)F)cc2-c2cn[nH]c2)cc1F [Example 764, 5-chloro-2-fluoro-4-[2-(1H-pyrazol-4-yl)-4-(trifluoromethyl)phenoxy]-N-1,3,4-thiadiazol-2-ylbenzenesulfonamide]
0.0035	Nc1cc(-c2cc(Cl)ccc2Oc2cc(F)c(S(=O)(=O)Nc3ncns3)cc2Cl)ccn1 [Example 732, 4-[2-(2-aminopyridin-4-yl)-4-chlorophenoxy]-5-chloro-2-fluoro-N-1,2,4-thiadiazol-5-ylbenzenesulfonamide]
0.22	CCn1nc(C(F)(F)F)cc1-c1ccc(Oc2ccc(S(=O)(=O)Nc3ncc(F)s3)cc2C#N)cc1F [Example 536, 3-cyano-4-{4-[1-ethyl-3-(trifluoromethyl)-1H-pyrazol-5-yl]-3-fluorophenoxy}-N-(5-fluoro-1,3-thiazol-2-yl)benzenesulfonamide]
0.097	CCn1nc(C(F)(F)F)cc1-c1ccc(Oc2cc(F)c(S(=O)(=O)Nc3nccs3)cc2Cl)cc1 [Example 305, 5-chloro-4-{4-[1-ethyl-3-(trifluoromethyl)-1H-pyrazol-5-yl]phenoxy}-2-fluoro-N-1,3-thiazol-2-ylbenzenesulfonamide]
0.0024	O=S(=O)(Nc1ncns1)c1cc(Cl)c(Oc2ccc(F)cc2-c2cn[nH]c2)cc1F [Example 755, 5-chloro-2-fluoro-4-[4-fluoro-2-(1H-pyrazol-4-yl)phenoxy]-N-1,2,4-thiadiazol-5-ylbenzenesulfonamide]

The remaining lines, values behind:

SMILES	IC50 [µM]
N#Cc1cc(S(=O)(=O)Nc2ncc(Cl)s2)ccc1Oc1ccc(Cl)cc1-c1ccnn1C(F)F [Example 595, 4-{4-Chloro-2-[1-(difluoromethyl)-1H-pyrazol-5-yl]phenoxy}-N-(5-chloro-1,3-thiazol-2-yl)-3-cyanobenzenesulfonamide]	0.08
N#Cc1cc(S(=O)(=O)Nc2ncn[nH]2)ccc1Oc1ccccc1-c1ccccc1 [Example 431, 4-(biphenyl-2-yloxy)-3-cyano-N-1H-1,2,4-triazol-5-ylbenzenesulfonamide]	11
N#Cc1cc(S(=O)(=O)Nc2nccs2)ccc1Oc1ccc(Cl)cc1-c1cnccn1 [Example 652, 4-(4-chloro-2-pyrazin-2-ylphenoxy)-3-cyano-N-1,3-thiazol-2-ylbenzenesulfonamide]	0.9
COCc1cc(Oc2ccc(S(=O)(=O)Nc3nccs3)cc2C#N)ccc1-n1cc(Cl)cn1 [Example 496, 4-[4-(4-chloro-1H-pyrazol-1-yl)-3-(methoxymethyl)phenoxy]-3-cyano-N-1,3-thiazol-2-ylbenzenesulfonamide]	3.8
N#Cc1cc(S(=O)(=O)Nc2nccs2)ccc1Oc1cnn(-c2ccc(Cl)cc2)c1 [Example 332, 4-{[1-(4-chlorophenyl)-1H-pyrazol-4-yl]oxy}-3-cyano-N-1,3-thiazol-2-ylbenzenesulfonamide]	>1
N#Cc1cc(S(=O)(=O)Nc2nccs2)ccc1Oc1ccccc1-c1cn[nH]c1N [Example 707, 4-[2-(5-amino-1H-pyrazol-4-yl)phenoxy]-3-cyano-N-1,3-thiazol-2-ylbenzenesulfonamide]	0.12

same assay, conditions: estimated IC50; hSCN9A HEK cells, PatchXpress platform; Examples 815-1040

IC50 [µM]	SMILES
0.23	O=S(=O)(Nc1ccc(F)cn1)c1cc(F)c(Oc2ccc(Cl)cc2-c2ccnnc2)cc1F [Example 846, 4-(4-chloro-2-pyridazin-4-ylphenoxy)-2,5-difluoro-N-(5-fluoropyridin-2-yl)benzenesulfonamide]
9.5	N#Cc1cnn(-c2ccc(Oc3ccc(S(=O)(=O)Nc4nccs4)cc3C#N)cc2)c1 [Example 994, 3-cyano-4-[4-(4-cyano-1H-pyrazol-1-yl)phenoxy]-N-1,3-thiazol-2-ylbenzenesulfonamide]
